This note sets out measurements from PubChem BioAssay AID1963984 (Molecular Pharmacology Branch, DTP, NCI, 2024).
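Note: spheroids exposed to agents for seven days before readout; percent viability relative to DMSO vehicle control taken as 100%.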

The first experiment has as its system 233499-124-R-J3-PDC spheroids with HUVEC/MSC, viability. Put plainly: Anticancer human tumor 233499-124-R-J3-PDC patient-derived colon adenocarcinoma cell line growth inhibition [PI3K]. The settings on record: second compound 0.0316 µM; first compound 3.16 µM; stronger effect = lower value. In short, it runs like this: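 Complex 3D spheroids (cancer cells + endothelial HUVEC + mesenchymal stem cells); drug pairs of targeted agent x inavolisib/alpelisib/duvelisib/copanlisib; half-log series from ~Cmax, max 10 microM if Cmax unknown; endpoint viability.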
What is called viability, T/C is the ratio of treated to control. Consider `CC(C)NCC(C(=O)N1CCN(c2ncnc3c2C(C)CC3O)CC1)c1ccc(Cl)cc1` (configuration not stated) + CC(Nc1ncnc2nc[nH]c12)c1cc2cccc(Cl)c2c(=O)n1-c1ccccc1, for which the viability, T/C was 77.1%.
In the case of `Cn1ncc(Cl)c1-c1cc(C(=O)NC(CN)Cc2cccc(F)c2)sc1Cl` (configuration not stated) + CC(Nc1ncnc2nc[nH]c12)c1cc2cccc(Cl)c2c(=O)n1-c1ccccc1, the viability, T/C is 50.2%.
Same read-out and setting: as for `Cn1nccc1Nc1nccc(-c2ccn(C(CO)c3ccc(Cl)c(F)c3)c(=O)c2)n1` (configuration not stated) + CC(Nc1ncnc2nc[nH]c12)c1cc2cccc(Cl)c2c(=O)n1-c1ccccc1, the figure is 89%.

Still in this experiment, the particulars now being: second compound 0.0316 µM; first compound 10 µM; stronger effect = lower value.
As for `CC(C)NCC(C(=O)N1CCN(c2ncnc3c2C(C)CC3O)CC1)c1ccc(Cl)cc1` (configuration not stated) + CC(Nc1ncnc2nc[nH]c12)c1cc2cccc(Cl)c2c(=O)n1-c1ccccc1, the viability, T/C is 74.5%.
Still for that read-out and setting: as for `Cn1ncc(Cl)c1-c1cc(C(=O)NC(CN)Cc2cccc(F)c2)sc1Cl` (configuration not stated) + CC(Nc1ncnc2nc[nH]c12)c1cc2cccc(Cl)c2c(=O)n1-c1ccccc1, the figure is 26.3%; as for `Cn1nccc1Nc1nccc(-c2ccn(C(CO)c3ccc(Cl)c(F)c3)c(=O)c2)n1` (configuration not stated) + CC(Nc1ncnc2nc[nH]c12)c1cc2cccc(Cl)c2c(=O)n1-c1ccccc1, 70.8%.

The experiment is the same for the next values; noted with them: second compound 0.1 µM; first compound 0.00316 µM; stronger effect = lower value.
As to `CCN1CCN(Cc2ccc(Nc3ncc(F)c(-c4cc(F)c5nc(C)n(C(C)C)c5c4)n3)nc2)CC1` + CC(Nc1ncnc2nc[nH]c12)c1cc2cccc(Cl)c2c(=O)n1-c1ccccc1, the viability, T/C is 101%.

The experiment is the same for the next values; noted with them: second compound 0.1 µM; first compound 0.01 µM; stronger effect = lower value.
For the compound `CCN1CCN(Cc2ccc(Nc3ncc(F)c(-c4cc(F)c5nc(C)n(C(C)C)c5c4)n3)nc2)CC1` + CC(Nc1ncnc2nc[nH]c12)c1cc2cccc(Cl)c2c(=O)n1-c1ccccc1, the viability, T/C was 108%.

Still in this experiment, the particulars now being: second compound 0.1 µM; first compound 0.0316 µM; stronger effect = lower value.
For `CC(C)NCC(C(=O)N1CCN(c2ncnc3c2C(C)CC3O)CC1)c1ccc(Cl)cc1` (configuration not stated) + CC(Nc1ncnc2nc[nH]c12)c1cc2cccc(Cl)c2c(=O)n1-c1ccccc1, the viability, T/C was 93.3%.
Turning to `CCN1CCN(Cc2ccc(Nc3ncc(F)c(-c4cc(F)c5nc(C)n(C(C)C)c5c4)n3)nc2)CC1` + CC(Nc1ncnc2nc[nH]c12)c1cc2cccc(Cl)c2c(=O)n1-c1ccccc1, the viability, T/C was 86.7%.
The same measure, in the same setting: as for `Cn1ncc(Cl)c1-c1cc(C(=O)NC(CN)Cc2cccc(F)c2)sc1Cl` (configuration not stated) + CC(Nc1ncnc2nc[nH]c12)c1cc2cccc(Cl)c2c(=O)n1-c1ccccc1, the figure is 86.4%.
The same measure, in the same setting: then `Cn1nccc1Nc1nccc(-c2ccn(C(CO)c3ccc(Cl)c(F)c3)c(=O)c2)n1` (configuration not stated) + CC(Nc1ncnc2nc[nH]c12)c1cc2cccc(Cl)c2c(=O)n1-c1ccccc1, with 103%.

The experiment is the same for the next values; noted with them: second compound 0.1 µM; first compound 0.1 µM; stronger effect = lower value.
With `CC(C)NCC(C(=O)N1CCN(c2ncnc3c2C(C)CC3O)CC1)c1ccc(Cl)cc1` (configuration not stated) + CC(Nc1ncnc2nc[nH]c12)c1cc2cccc(Cl)c2c(=O)n1-c1ccccc1, the viability, T/C was 96.7%.
Same read-out and setting: as for `CCN1CCN(Cc2ccc(Nc3ncc(F)c(-c4cc(F)c5nc(C)n(C(C)C)c5c4)n3)nc2)CC1` + CC(Nc1ncnc2nc[nH]c12)c1cc2cccc(Cl)c2c(=O)n1-c1ccccc1, the figure is 73.8%.
Same read-out and setting: then `Cn1ncc(Cl)c1-c1cc(C(=O)NC(CN)Cc2cccc(F)c2)sc1Cl` (configuration not stated) + CC(Nc1ncnc2nc[nH]c12)c1cc2cccc(Cl)c2c(=O)n1-c1ccccc1, with 108%.
Same read-out and setting: then `Cn1nccc1Nc1nccc(-c2ccn(C(CO)c3ccc(Cl)c(F)c3)c(=O)c2)n1` (configuration not stated) + CC(Nc1ncnc2nc[nH]c12)c1cc2cccc(Cl)c2c(=O)n1-c1ccccc1, with 95.6%.

Still in this experiment, the particulars now being: second compound 0.1 µM; first compound 0.316 µM; stronger effect = lower value.
As for `CC(C)NCC(C(=O)N1CCN(c2ncnc3c2C(C)CC3O)CC1)c1ccc(Cl)cc1` (configuration not stated) + CC(Nc1ncnc2nc[nH]c12)c1cc2cccc(Cl)c2c(=O)n1-c1ccccc1, the viability, T/C is 77.6%.
On the same count and under the same terms, as for `CCN1CCN(Cc2ccc(Nc3ncc(F)c(-c4cc(F)c5nc(C)n(C(C)C)c5c4)n3)nc2)CC1` + CC(Nc1ncnc2nc[nH]c12)c1cc2cccc(Cl)c2c(=O)n1-c1ccccc1, the figure is 61.4%.
Same read-out and setting: then `Cn1ncc(Cl)c1-c1cc(C(=O)NC(CN)Cc2cccc(F)c2)sc1Cl` (configuration not stated) + CC(Nc1ncnc2nc[nH]c12)c1cc2cccc(Cl)c2c(=O)n1-c1ccccc1, with 94.2%; and `Cn1nccc1Nc1nccc(-c2ccn(C(CO)c3ccc(Cl)c(F)c3)c(=O)c2)n1` (configuration not stated) + CC(Nc1ncnc2nc[nH]c12)c1cc2cccc(Cl)c2c(=O)n1-c1ccccc1, with 91.3%.

The experiment is the same for the next values; noted with them: second compound 0.1 µM; first compound 1 µM; stronger effect = lower value.
Turning to `CC(C)NCC(C(=O)N1CCN(c2ncnc3c2C(C)CC3O)CC1)c1ccc(Cl)cc1` (configuration not stated) + CC(Nc1ncnc2nc[nH]c12)c1cc2cccc(Cl)c2c(=O)n1-c1ccccc1, the viability, T/C is 83.8%.
Regarding `CCN1CCN(Cc2ccc(Nc3ncc(F)c(-c4cc(F)c5nc(C)n(C(C)C)c5c4)n3)nc2)CC1` + CC(Nc1ncnc2nc[nH]c12)c1cc2cccc(Cl)c2c(=O)n1-c1ccccc1, the viability, T/C was 47%.
Same read-out and setting: then `Cn1ncc(Cl)c1-c1cc(C(=O)NC(CN)Cc2cccc(F)c2)sc1Cl` (configuration not stated) + CC(Nc1ncnc2nc[nH]c12)c1cc2cccc(Cl)c2c(=O)n1-c1ccccc1, with 58.2%.
With `Cn1nccc1Nc1nccc(-c2ccn(C(CO)c3ccc(Cl)c(F)c3)c(=O)c2)n1` (configuration not stated) + CC(Nc1ncnc2nc[nH]c12)c1cc2cccc(Cl)c2c(=O)n1-c1ccccc1, the viability, T/C was 65.1%.

Staying with this experiment, now noted: second compound 0.1 µM; first compound 3.16 µM; stronger effect = lower value.
With `CC(C)NCC(C(=O)N1CCN(c2ncnc3c2C(C)CC3O)CC1)c1ccc(Cl)cc1` (configuration not stated) + CC(Nc1ncnc2nc[nH]c12)c1cc2cccc(Cl)c2c(=O)n1-c1ccccc1, the viability, T/C was 110%.
Still for that read-out and setting: then `Cn1ncc(Cl)c1-c1cc(C(=O)NC(CN)Cc2cccc(F)c2)sc1Cl` (configuration not stated) + CC(Nc1ncnc2nc[nH]c12)c1cc2cccc(Cl)c2c(=O)n1-c1ccccc1, with 75.7%.
With `Cn1nccc1Nc1nccc(-c2ccn(C(CO)c3ccc(Cl)c(F)c3)c(=O)c2)n1` (configuration not stated) + CC(Nc1ncnc2nc[nH]c12)c1cc2cccc(Cl)c2c(=O)n1-c1ccccc1, the viability, T/C was 92.8%.

The same experiment, now with this note: second compound 0.1 µM; first compound 10 µM; stronger effect = lower value.
For `CC(C)NCC(C(=O)N1CCN(c2ncnc3c2C(C)CC3O)CC1)c1ccc(Cl)cc1` (configuration not stated) + CC(Nc1ncnc2nc[nH]c12)c1cc2cccc(Cl)c2c(=O)n1-c1ccccc1, the viability, T/C was 87.4%.
As to `Cn1ncc(Cl)c1-c1cc(C(=O)NC(CN)Cc2cccc(F)c2)sc1Cl` (configuration not stated) + CC(Nc1ncnc2nc[nH]c12)c1cc2cccc(Cl)c2c(=O)n1-c1ccccc1, the viability, T/C was 24.7%.
Same read-out and setting: as for `Cn1nccc1Nc1nccc(-c2ccn(C(CO)c3ccc(Cl)c(F)c3)c(=O)c2)n1` (configuration not stated) + CC(Nc1ncnc2nc[nH]c12)c1cc2cccc(Cl)c2c(=O)n1-c1ccccc1, the figure is 62.3%.

The same experiment, now with this note: second compound 0.316 µM; first compound 0.00316 µM; stronger effect = lower value.
With `CCN1CCN(Cc2ccc(Nc3ncc(F)c(-c4cc(F)c5nc(C)n(C(C)C)c5c4)n3)nc2)CC1` + CC(Nc1ncnc2nc[nH]c12)c1cc2cccc(Cl)c2c(=O)n1-c1ccccc1, the viability, T/C is 97.1%.

Still in this experiment, the particulars now being: second compound 0.316 µM; first compound 0.01 µM; stronger effect = lower value.
On to `CCN1CCN(Cc2ccc(Nc3ncc(F)c(-c4cc(F)c5nc(C)n(C(C)C)c5c4)n3)nc2)CC1` + CC(Nc1ncnc2nc[nH]c12)c1cc2cccc(Cl)c2c(=O)n1-c1ccccc1, for which the viability, T/C was 87.3%.

Staying with this experiment, now noted: second compound 0.316 µM; first compound 0.0316 µM; stronger effect = lower value.
For the compound `CC(C)NCC(C(=O)N1CCN(c2ncnc3c2C(C)CC3O)CC1)c1ccc(Cl)cc1` (configuration not stated) + CC(Nc1ncnc2nc[nH]c12)c1cc2cccc(Cl)c2c(=O)n1-c1ccccc1, the viability, T/C is 95.7%.
With `CCN1CCN(Cc2ccc(Nc3ncc(F)c(-c4cc(F)c5nc(C)n(C(C)C)c5c4)n3)nc2)CC1` + CC(Nc1ncnc2nc[nH]c12)c1cc2cccc(Cl)c2c(=O)n1-c1ccccc1, the viability, T/C was 85.4%.
Turning to `Cn1ncc(Cl)c1-c1cc(C(=O)NC(CN)Cc2cccc(F)c2)sc1Cl` (configuration not stated) + CC(Nc1ncnc2nc[nH]c12)c1cc2cccc(Cl)c2c(=O)n1-c1ccccc1, the viability, T/C is 115%.
Turning to `Cn1nccc1Nc1nccc(-c2ccn(C(CO)c3ccc(Cl)c(F)c3)c(=O)c2)n1` (configuration not stated) + CC(Nc1ncnc2nc[nH]c12)c1cc2cccc(Cl)c2c(=O)n1-c1ccccc1, the viability, T/C is 108%.

Still in this experiment, the particulars now being: second compound 0.316 µM; first compound 0.1 µM; stronger effect = lower value.
As to `CC(C)NCC(C(=O)N1CCN(c2ncnc3c2C(C)CC3O)CC1)c1ccc(Cl)cc1` (configuration not stated) + CC(Nc1ncnc2nc[nH]c12)c1cc2cccc(Cl)c2c(=O)n1-c1ccccc1, the viability, T/C is 102%.
As for `CCN1CCN(Cc2ccc(Nc3ncc(F)c(-c4cc(F)c5nc(C)n(C(C)C)c5c4)n3)nc2)CC1` + CC(Nc1ncnc2nc[nH]c12)c1cc2cccc(Cl)c2c(=O)n1-c1ccccc1, the viability, T/C was 84.2%.
In the case of `Cn1ncc(Cl)c1-c1cc(C(=O)NC(CN)Cc2cccc(F)c2)sc1Cl` (configuration not stated) + CC(Nc1ncnc2nc[nH]c12)c1cc2cccc(Cl)c2c(=O)n1-c1ccccc1, the viability, T/C is 107%.
Same read-out and setting: then `Cn1nccc1Nc1nccc(-c2ccn(C(CO)c3ccc(Cl)c(F)c3)c(=O)c2)n1` (configuration not stated) + CC(Nc1ncnc2nc[nH]c12)c1cc2cccc(Cl)c2c(=O)n1-c1ccccc1, with 89.9%.

Staying with this experiment, now noted: second compound 0.316 µM; first compound 0.316 µM; stronger effect = lower value.
On to `CC(C)NCC(C(=O)N1CCN(c2ncnc3c2C(C)CC3O)CC1)c1ccc(Cl)cc1` (configuration not stated) + CC(Nc1ncnc2nc[nH]c12)c1cc2cccc(Cl)c2c(=O)n1-c1ccccc1, for which the viability, T/C is 95.8%.
On the same count and under the same terms, as for `CCN1CCN(Cc2ccc(Nc3ncc(F)c(-c4cc(F)c5nc(C)n(C(C)C)c5c4)n3)nc2)CC1` + CC(Nc1ncnc2nc[nH]c12)c1cc2cccc(Cl)c2c(=O)n1-c1ccccc1, the figure is 66.3%.
